Columns and labels:
A. baumannii = assay: MIC against G-ve with and without colistin: A. baumannii; format: cell-based
S. epidermidis biofilm = assay: Reduction of adherent S. epidermidis biofilm; format: cell-based; conditions: compared to linezolid, mupirocin, vancomycin, rifampicin
Description: (§1) Biofilms are a major contributing factor to lack of healing of chronic wounds, as the matrix-embedded bacteria are recalcitrant to antibiotics and host immune response, rendering them extremely challenging and costly to treat.

MRSA USA300 [1] = assay: Non-lethal MRSA infection mice model; format: in vivo; conditions: two doses oral 0.25 mg/kg
Description: (§2) For MRSA systemic infection, neutropenic Female BALB/c mice were inoculated IP with 1×10^9 MRSA USA300.

[2] = in vivo; cited from earlier work
P. aeruginosa = assay: MIC against G-ve with and without colistin: P. aeruginosa; format: cell-based
S. aureus biofilm = assay: Reduction of adherent S. aureus biofilm; format: cell-based; conditions: compared to linezolid, mupirocin, vancomycin, rifampicin
Description: as §1

[3] = tested on: VRE (14) clinical isolates; assay: MIC against Gram +ve clinical isolates: VRE; format: cell-based, enterococcus
[4] = tested on: multiple MRSA and VRSA strains; assay: Synergy with conventional antimicrobials in vitro; format: cell-based, S. aureus; conditions: most tested conventional antimicrobials, all tested strains (few exceptions such as VRSA5)
S. Typhimurium = assay: MIC against G-ve with and without colistin: S. Typhimurium; format: cell-based; conditions: without colistin
MRSA USA300 [5] = assay: Mouse model of MRSA systemic infection (lethal); format: in vivo, BALB/c mice; conditions: three doses
Description: as §2

[6] = tested on: Colistin resistant clinical isolates of P. aeruginosa; assay: MIC against G-ve with and without colistin: colistin resistant P. aeruginosa; format: cell-based; conditions: without colistin
[7] = tested on: E. coli cellular extracts (bacterial translation process); assay: Bacterial transcription and translation assay, luciferase readout; format: biochemical
Description: For bacterial protein-synthesis inhibition, E. coli cellular extracts in a transcription and translation assay were used to monitor protein production via luciferase readout.
(§3) In this Example, we tested the effects of the two drugs on bacterial, mammalian and mitochondrial protein-synthesis. For bacterial protein-synthesis inhibition, we used E. coli cellular extracts in a transcription and translation assay that monitors protein production via luciferase readout.

E.. coli O157:H7 = assay: MIC against G-ve with and without colistin: E. coli O157:H7; format: cell-based
S. aureus = assay: Macromolecular synthesis (MMS): incorporation of radioactive precursors; format: cell-based
Description: In this Example we examined the effect of Auranofin and Ebselen on incorporation of radioactive precursors into macromolecules in S. aureus.

[8] = tested on: MRSA USA300 persister cells tolerant to ciprofloxacin; assay: Killing of S. aureus persister cells; format: cell-based; conditions: added after ciprofloxacin treatment; 48 h
[9] = tested on: MRSA (23) clinical isolates; assay: MIC against Gram +ve clinical isolates: MRSA; format: cell-based, S. aureus; conditions: for MIC50: MRSA (23)
K. pneumonia = assay: MIC against G-ve with and without colistin: K. pneumonia; format: cell-based
[10] = tested on: MRSA USA300-0114 toxins hla and PVL; assay: MRSA toxin production by ELISA; format: cell-based, S. aureus; conditions: 1 hour incubation
[11] = tested on: intracellular MRSA USA300 in J774A.1 cells; assay: Activity against intracellular MRSA in J774A.1 cells; format: cell-based; conditions: compared to vancomycin and linezolid
[12] = tested on: rabbit reticulocyte lysate system (mammalian protein synthesis); assay: Mammalian protein synthesis in rabbit reticulocyte lysate system; format: biochemical
Description: (IC50) of Auranofin in rabbit reticulocyte extract. […] The results are given as means±SD (data without error bars indicate that the SD is too small to be seen).
as §3

[13] = tested on: VISA and VRSA (14) clinical isolates; assay: MIC against Gram +ve clinical isolates: VISA and VRSA; format: cell-based, S. aureus
MRSA USA300 [14] = assay: Mouse-model of staphylococcal skin infection: bacterial load; format: in vivo, BALB/c mice; conditions: topical 20 mg of 2% in petroleum jelly, twice a day for 5 days
Protocol: Auranofin and ebselen were evaluated in a mouse-model of staphylococcal skin infection. Seven groups of BALB/c mice (n=5) were inoculated with MRSA USA300 (4.3×10^9 CFU/ml) intradermally. 48 hours after infection and formation of open wound, four groups were treated topically with 20 mg of 2% Ebselen, 2% Auranofin, 2% mupirocin or 2% […] in petroleum jelly (ointment—skin protectant). Two groups were treated orally with either linezolid or clindamycin (25 mg/kg). The last group received the vehicles alone (petroleum jelly). All groups were treated twice a day for 5 days.
Since the clinical severity of bacterial skin infections is driven by the excess host pro-inflammatory cytokines rather than by bacterial burden, the recognized anti-inflammatory response of Auranofin and Ebselen combined with the potent antimicrobial, killing intracellular MRSA, and antibiofilm activities, should provide great advantage in the treatment of bacterial skin infection and wound healing. In this Example, we evaluated Auranofin and Ebselen in a mouse-model of staphylococcal skin infection. Seven groups of BALB/c mice (n=5) were inoculated with MRSA USA300 (4.3×10^9 CFU/ml) intradermally. 48 hours after infection and formation of open wound, four groups were treated topically with 20 mg of 2% ebselen, 2% auranofin, 2% mupirocin or 2% […] in petroleum jelly (ointment—skin protectant). […]

[15] = tested on: pro-inflammatory cytokines (TNF-α, IL-6, IL-1β, MCP-1); assay: Cytokines production in MRSA skin infection in mice; format: in vivo; conditions: topical application
Description: Each points represents single mice and each group has 5 mice. P values of (*P≤0.05) (**P≤0.01) are considered as significant. We investigated the immunomodulatory activity of Auranofin and ebselen in a topical application against MRSA skin infection in mice.
In this Example, we investigated the immunomodulatory activity of Auranofin and Ebselen in a topical application against MRSA skin infection in mice. […] These cytokines are thought to play a greater role in the severity of S. aureus skin infections more than the size of the bacterial burden and can lead to an infection persisting for a longer time period. Therefore, the ability of Auranofin and Ebselen reduces the production of these cytokines in the infected mice, indicating the clinical relevance of these drugs if used for antimicrobial treatment.

[16] = concentrations significantly below the MIC

CC(=O)OC[C@H]1O[C@@H]([S-])[C@H](OC(C)=O)[C@@H](OC(C)=O)[C@@H]1OC(C)=O.CCP(CC)CC.[Au+] [Auranofin]
MIC, colistin (+) (A. baumannii; with sub-inhibitory colistin 0.0625 μg/ml): 0.25 µg/mL
MIC, colistin (−) (A. baumannii; without colistin): 16 µg/mL
reduction of adherent biofilm (S. epidermidis biofilm): superior in reducing adherent biofilms
bacterial load in the liver and spleen (MRSA USA300 [1]): significantly reduced the bacterial load
clinically achievable blood concentration [2]: 2.37 µg/mL
MIC, colistin (+) (P. aeruginosa; with sub-inhibitory colistin 0.25 μg/ml): 0.0312 µg/mL
MIC, colistin (−) (P. aeruginosa; without colistin): 256 µg/mL
reduction of adherent biofilm (S. aureus biofilm): superior in reducing adherent biofilms
MIC50 ([3]; first column per drug): 0.125 µg/mL
MIC50 ([3]; second column per drug): 0.125 µg/mL
relationship with conventional antimicrobials in vitro [4]: synergistic relationship
MIC, colistin (−) (S. Typhimurium): 128 µg/mL
mice survival (MRSA USA300 [5]; oral 0.125 mg/kg once daily): 40%
mice survival (MRSA USA300 [5]; oral 0.25 mg/kg once daily): 80%
MIC, colistin (−) [6]: >256 µg/mL
IC50 of bacterial translation [7]: 0.038 µg/mL
MIC, colistin (+) (E.. coli O157:H7; E. coli O157:H7, with sub-inhibitory colistin 0.0625 μg/ml): 0.0625 µg/mL
MIC, colistin (−) (E.. coli O157:H7; E. coli O157:H7, without colistin): 64 µg/mL
DNA synthesis inhibition (S. aureus; [16]): clear dose-dependent disruption
cell wall synthesis inhibition (S. aureus; [16]): clear dose-dependent disruption
protein synthesis inhibition (S. aureus; [16]): clear dose-dependent disruption
effect on RNA synthesis (S. aureus; up to 4×MIC): no significant effect
effect on lipid synthesis (S. aureus; up to 4×MIC): no significant effect
effect on number of planktonic persister cells [8]: complete eradication of planktonic persister cells
MIC50 ([9]; first column per drug): 0.062 µg/mL
MIC50 ([9]; second column per drug): 0.125 µg/mL
MIC90 (MICs at which 90% of MRSA isolates were inhibited) ([9]; MRSA isolates): 0.125 µg/mL
MIC, colistin (+) (K. pneumonia; with sub-inhibitory colistin 0.125 μg/ml): 0.125 µg/mL
MIC, colistin (−) (K. pneumonia; without colistin): 256 µg/mL
production of toxin PVL [10]: significantly suppressed toxin production
production of toxin hla [10]: significantly suppressed toxin production
reduction of intracellular MRSA [11]: superior in reducing intracellular MRSA
inhibition of translation in mammalian protein synthesis [12]: did not inhibit translation
MIC50 ([13]; first column per drug): 0.062 µg/mL
MIC50 ([13]; second column per drug): 0.062 µg/mL
bacterial load in MRSA skin lesions (MRSA USA300 [14]): significantly reduced the bacterial load
level of IL-6 [15]: significantly reduced
level of TNF-α [15]: significantly reduced
level of IL-1β ([15]; data not shown): significantly reduced
level of MCP-1 ([15]; data not shown): significantly reduced

Source: patent US10301664B2, “Repurposing non-antimicrobial drugs and clinical molecules to treat bacterial infections” (Purdue Research Foundation, priority 2015, dated 2019)
